For experiment [1], the system named is male Wistar rats. The experiment in a line: Depressor effect of 20-HETE analog DSR given IV, with or without antagonists. The format is in vivo, rat.
Experiment [2] concerns male Wistar rats. The experiment in a line: Plasma CGRP and substance P after i.v. DSR (radioimmunoassay). The format is in vivo, rat. The settings on record: after DSR 1 mg/kg iv.
The subject of experiment [3] is mesenteric arteries. The experiment in a line: MethA-induced CGRP release from isolated mesenteric arteries (radioimmunoassay). The settings on record: arteries of NS-treated rats. The arrangement: species or system rat. On the procedure: The arteries were dissected free of fat and connective tissues.
The preparations were incubated in a Krebs' solution of the following compositions (in mM): NaCl 119, NaHCO3 25, KH2PO4 1.2, MgSO4 1.5, CaCl2 2.5, KCl 4.7, and D-glucose 11. The Krebs' solution was maintained at 37 °C and gassed with 95% O2 and 5% CO2. After 1 h stabilization period, the arteries were transferred to another chamber containing 1 ml of Krebs' solution with the addition of 0.05% BSA and drugs. […] The tissues were removed after 20 min incubation, and the solutions were collected. At the end of the experiment, the tissues were blotted and weighted.
(§1) This antibody has 100% cross-reactivity with rat α-CGRP and 79% with rat β-CGRP. There is no cross-reactivity with rat amylin, calcitonin, somatostatin, or substance P.

Experiment [4] relates to Wistar rats fed a NS or HS diet for 3 weeks. The experiment in a line: Plasma CGRP levels after MethA injection (radioimmunoassay). In kind it is in vivo, rat. The settings on record: MethA 5 mg/kg.
From the text: Fifteen minutes after injection, when the prolonged depressor phase approached to the lowest point, the rats were decapitated for collection of blood for plasma CGRP assay.
as §1

Experiment [5] relates to Wistar rats fed a normal-salt (NS) or high-salt (HS) diet for 10 days. The experiment in a line: MAP and HR responses to i.v. bolus NADA with or without antagonists in conscious rats. In kind it is in vivo, rat. The following applies: for decrease in mean arterial pressure (depressor effect): NADA iv (1, 4, 10 mg/kg; dose of this value not stated); for prolonged depressor effect of NADA (decrease in MAP) after antagonist: NADA 4 mg/kg after CAPZ 3 mg/kg, CGRP8-37 infusion or SR141716A 3 mg/kg. The source says: In brief: Wistar rats were fed a normal (NS, 0.4%) or high (HS, 4%) sodium diet for 10 days, then artery and vein were cannulated for measurement of mean arterial pressure (MAP) or for injection of drugs and collection of plasma.
Animal Preparation: Male Wistar rats (7 weeks old, Charles River Laboratory, Wilmington, Mass.) were housed in the animal facility for 1 week before the experiment. Rats were grouped randomly and pair-fed a NS (0.4% of Na^+ by weight) or HS (4% of Na^+ by weight) diet for 10 days. The rat chow was purchased from Harlan Teklad Diets (Madison, Wis.). Drinking water was available ad libitum throughout the experiment. All protocols were in accordance with the National Institutes of Health Guidelines for the Care and Use of Laboratory Animals.
Surgical Preparation Rats were anesthetized with ketamine and xylazine (80 and 4 mg/kg intraperitoneally, respectively) for cannulation or with urethane (1.5 g/kg intraperitoneally) for capsaicin administration. The left jugular vein, carotid and femoral artery were cannulated under anesthesia for injection of drugs or monitoring of mean arterial pressure (MAP) and heart rate (HR).
Three hours after surgery, baseline MAP and its response to the above-mentioned drugs were obtained with the rats fully awake and unrestrained [Wang et al., Am J Physiol 2004; 287:H1868-H[874]. NADA was injected in increasing doses (1, 4, and 10 mg/kg intravenous bolus) in 3 subgroups of rats (each group for each dose). To determine the role of TRPV1 and CB 1 receptor in NADA-induced hypotension, NADA (4 mg/kg) was injected 10 minutes or 20 minutes after intravenous injection of CAPZ (3 mg/kg) or SR141716A (3 mg/kg), respectively.
To examine the effect of CGRP8-37 on NADA-induced hypotension, CGRP8-37 was intravenously administered at the rate of 1 mg/kg/min for 2 minutes followed by injection at the rate of 0.5 mg/kg/min for 15 minutes. NADA (4 mg/kg) was injected 1 minute after CGRPs-37 administration. The effectiveness of the dose and time frame for CGRP8-37 injection was verified by blockade of the hypotensive response to capsaicin (30 μg/kg) (n=5).

Experiment [6] concerns mesenteric arteries. The experiment in a line: NADA-induced CGRP release from isolated mesenteric arteries (radioimmunoassay). The arrangement: species or system rat. On the procedure: After an 1 h stabilization period, the arteries were transferred to another chamber containing 1 ml of Krebs's solution with the addition of 0.05% BSA and drugs including NADA (1 or 10 μM) or CAPZ (10 μM). The tissues were removed after 20 min incubation, and the solutions were collected and evaporated. […] At the end of the experiment, the tissues were blotted and weighted. […] The results are expressed as pg of milligram of tissues.
(§2) This antibody has 100% cross-reactivity with rat a-CGRP and 79% with β-CGRP. There is no cross-reactivity with rat amylin, calcitonin, somatostatin, or substance P. The assay was performed following the manufacturer's protocol.

The subject of experiment [7] is Wistar rats fed a NS or HS diet for 10 days. The experiment in a line: Plasma CGRP levels after NADA injection (radioimmunoassay). In kind it is in vivo, rat. The following applies: NADA 4 mg/kg. On the procedure:
Eight minutes after injection, when the depressor phase approached to the lowest point, the rats were sacrificed for collection of blood for plasma CGRP assay.
as §2

The test system of a further experiment is Wistar rats fed HS diet. The experiment in a line: Blood pressure after i.v. SR141716A or CAPZ in conscious rats fed HS diet (Example I). The settings on record: 3 mg/kg iv. In kind it is in vivo, rat. The protocol:
Experiments were approved by the Institutional Animals Care and Use Committee. Experiments were performed using male Wistar rats (Charles River Laboratory, Wilmington, Mass.). Rats (6 weeks old) were housed in the animal facility for 1 week before the experiments. Rats were then randomly assigned to a normal-sodium (NS) diet (0.4% of Na+ by weight, Harlan Teklad) or HS (4% of Na+ by weight; Harlan Teklad) for 3 weeks. Rats drank water ad libitum throughout the experiment.
Surgical Preparation and MAP measurements: The rats were anesthetized with ketamine and xylazine (80 and 4 mg/kg intraperitoneally, respectively) for implantation of vascular catheters or with urethane ([…] intraperitoneally) throughout protocol 2. […]
Protocol 1: Rats fed a NS or HS diet were randomly assigned to 5 groups for intravenous injection of vehicle or MethA alone or in combination with SR141716A (a CB1 receptor antagonist), CAPZ (a VR1 receptor antagonist), or the combination of the 2 (n=5 to 8). Baseline MAP and its response to the aforementioned drugs were determined 3 hours after surgery when animals were fully awake and unrestrained as described previously. […]

For experiment [8], the system named is high-salt plus capsaicin pretreated rats. The following applies: rat, in vivo; cited from earlier work.

Several values for one entry are separate records, joined by “and”; a condition that tells them apart may be missing. Identical values can stand only once.

Turning to `O=C(O)CCC/C=C\CCCCCCC/C=C\CCCCO` [DSR], in the experiment with male Wistar rats [1] (DSR 1 mg/kg IV alone), the “decrease in mean arterial pressure” value is 22.1±2.3 mmHg. In addition, the “depressor effect among the analogs tested in vivo” value in the experiment with male Wistar rats [1] (rat, in vivo) is on record as “most potent”. In the experiment with male Wistar rats [2], the “plasma CGRP levels” value stood at 273.4 ± 23.6 pg/mL and the “plasma SP levels” value was found to be 14.5 ± 1.6 pg/mL.
`CCCCC/C=C\C/C=C\C/C=C\C/C=C\CCCC(=O)N[C@H](C)CO` [MethA, methanandamide]: the CGRP release in the experiment with mesenteric arteries [3] (MethA 0.1 μM) is given as 4.81±0.75 pg/mg tissue; in the experiment with mesenteric arteries [3] (MethA 10 μM), 14.89±2.36 pg/mg tissue. Moreover, the “plasma CGRP levels” value is 78.1 ± 8.5 pg/mL in experiment [4] (HS) and 50.4 ± 5.9 pg/mL in [4] (NS).
As to `CCCCC/C=C\C/C=C\C/C=C\C/C=C\CCCC(=O)NCCc1ccc(O)c(O)c1` [NADA, N-arachidonoyl dopamine], the “peak decrease in MAP” value in experiment [5] (NADA 1 mg/kg iv, HS diet) is given as 6±2 mmHg; in experiment [5] (NADA 1 mg/kg iv, NS diet), 7±3 mmHg; in experiment [5] (NADA 4 mg/kg iv, HS diet), 22±3 mmHg; in experiment [5] (NADA 4 mg/kg iv, NS diet), 14±2 mmHg; in experiment [5] (NADA 10 mg/kg iv, HS diet) it was 33±5 mmHg; in [5] (NADA 10 mg/kg iv, NS diet) it was 24±4 mmHg. For the same molecule, the “decrease in mean arterial pressure (depressor effect)” value in experiment [5] (HS diet) was 16±3 mmHg; in experiment [5] (NS diet), 8±2 mmHg. Besides, the “HR during depressor effect” value in experiment [5] (after NADA iv) was “pronounced increase”. The “duration of prolonged depressor activity” value in experiment [5] (after NADA iv) is “approximately 20 minutes”. In experiment [5] (after NADA iv), the “time of peak of prolonged depressor activity after administration” value lay within 7 to 9 min. For the same molecule, the CGRP release is reported as 9.16±0.68 pg/mg tissue in the experiment on mesenteric arteries [6] (NADA 1 μM, arteries of HS-treated rats); 6.43±0.58 pg/mg tissue in the experiment with mesenteric arteries [6] (NADA 1 μM, arteries of NS-treated rats); 19.00±1.56 pg/mg tissue in the experiment with mesenteric arteries [6] (NADA 10 μM, arteries of HS-treated rats); 13.07±0.91 pg/mg tissue in the experiment on mesenteric arteries [6] (NADA 10 μM, arteries of NS-treated rats). The “plasma CGRP levels” value in experiment [7] (HS) is 84.2 ± 7.2 pg/mL and 87.7 ± 5.6 pg/mL; in experiment [7] (NS) it was 55.3 ± 4.6 pg/mL and 60.6 ± 5.1 pg/mL.
For `Cc1c(C(=O)NN2CCCCC2)nn(-c2ccc(Cl)cc2Cl)c1-c1ccc(Cl)cc1` [SR141716A], the “prolonged depressor effect of NADA (decrease in MAP) after antagonist” value amounted to 19±4 mmHg in experiment [5] (HS diet) and 12±3 mmHg in [5] (NS diet). For the same molecule, the “effect on initial transient hypotensive and brief pressor phases of NADA” value in [5] (NADA 4 mg/kg, NS and HS) is “did not affect”. For the same molecule, the “duration of transient elevation in blood pressure after injection” value with Wistar rats fed HS diet was “no more than 15 minutes”.
Turning to `CCCCc1nc(Cl)c(CO)n1Cc1ccc(-c2ccccc2-c2nn[nH]n2)cc1` [losartan], in [8], the “effect on the impaired natriuretic response” value is reported as “unable to prevent” and the “prevention of the development of salt-induced hypertension” value is on record as “prevented”.

These data come from patent publication US20080051454A1, “Compositions and methods for transient receptor potential vanilloid (TRPV) channel mediated treatments” (The Board of Trustees Operating Michigan State University, priority 2006, published 2008).
